Measured values: patent US6482921B1, “Uridyl peptide antibiotic (UPA) derivatives, their synthesis and use” (Essential Therapeutics, Inc., priority 1999, dated 2002)
Converted amounts (≈) assume the structure as drawn.

What was measured:
[1] = test system: Escherichia Coli MC 4100; test: MIC broth microdilution, E. coli MC 4100 (wild type); assay type: cell-based; settings: E. coli MC 4100
[2] = test system: Escherichia Coli MC 4100 AcrAB; test: MIC broth microdilution, E. coli MC 4100 AcrAB (ΔAcrAB); assay type: cell-based; settings: E. coli AcrAB
[3] = test system: Pasteurella multocida pm002; test: MIC broth microdilution, P. multocida pm002 (wild type); assay type: cell-based
[4] = test system: Staphylococcus aureus 8325-4; test: MIC broth microdilution, S. aureus 8325-4 (wild type); assay type: cell-based; settings: S. aureus 8325-4
[5] = test system: Pseudomonas aeruginosa PAM 1135; test: MIC broth microdilution, P. aeruginosa PAM 1135 (high level UPA resistance); assay type: cell-based; settings: P. aeruginosa PAM 1135 UPA1^r
[6] = test system: Pseudomonas aeruginosa PAM 1323; test: MIC broth microdilution, P. aeruginosa PAM 1323 (medium level UPA resistance); assay type: cell-based
[7] = test system: Mycobacterium smegmatis ATCC 19420; test: MIC broth microdilution, M. smegmatis ATCC 19420; settings: 72 hours at 35° C., CAMHB
[8] = test system: Mycobacterium fortuitum ATCC 6841; test: MIC broth microdilution, M. fortuitum ATCC 6841; settings: 72 hours at 35° C., CAMHB
[9] = test system: Pseudomonas aeruginosa PAM 1154; test: MIC broth microdilution, P. aeruginosa PAM 1154 (OprM::Hg); assay type: cell-based; settings: P. aeruginosa PAM 1154 OprM::Hg
[10] = test system: Pseudomonas aeruginosa PAM 1020; test: MIC broth microdilution, P. aeruginosa PAM 1020 (wild type); assay type: cell-based; settings: P. aeruginosa PAM 1020
[11] = test system: Escherichia Coli MC 4100 AcrAB UPA3r; test: MIC broth microdilution, E. coli MC 4100 AcrAB UPA3r (ΔAcrAB, UPA resistant); assay type: cell-based; settings: E. coli AcrAB UPA3^r
[12] = test system: Staphylococcus aureus ATCC 29213; test: MIC broth microdilution, S. aureus ATCC 29213 (wild type); assay type: cell-based; settings: S. aureus ATCC 29213

SMILES | MIC (μg/ml) Broth microdilution [1] | MIC (μg/ml) Broth microdilution [2] | MIC (μg/ml) Broth microdilution [3] | MIC (μg/ml) Broth microdilution [4] | MIC (μg/ml) Broth microdilution [5] | MIC (μg/ml) Broth microdilution [6] | MIC Broth microdilution M. smegmatis ATCC19420 [7] | MIC Broth microdilution M. fortuitum ATCC 6841 [8] | MIC (μg/ml) Broth microdilution [9] | MIC (μg/ml) Broth microdilution [10] | MIC (μg/ml) Broth microdilution [11] | MIC (μg/ml) Broth microdilution [12]
CC(N)C(=O)N(C)C(C)C(NC(=O)C(Cc1ccc(Cl)cc1)NC(=O)NC(Cc1ccc(O)cc1)C(=O)O)C(=O)NCC1CC(O)C(n2ccc(=O)[nH]c2=O)O1 [Compound 135, 1-[5′-[(2S,3S)-N^3-L-Alanyl-N^2-[N-[[(1S)-1-carboxy-4-hydroxyphenethyl]carbamoyl]-L-4-chlorophenylalanyl]-N^3-methyl-2,3-diaminobutyramido]-3′,5′-dideoxy-α-L-arabinofuranosyl]uracil] | 8 µg/mL (≈ 9.98 µM) | <1 µg/mL | 512 µg/mL (≈ 639 µM) | >512 µg/mL | >512 µg/mL | >512 µg/mL | 16 mg/L (≈ 20 µM) | 64 mg/L (≈ 79.9 µM) | 16 µg/mL (≈ 20 µM) | 64 µg/mL (≈ 79.9 µM) | 2 µg/mL (≈ 2.5 µM) | 512 µg/mL (≈ 639 µM)
C[C@H](N)C(=O)N(C)[C@@H](C)[C@H](NC(=O)[C@H](Cc1ccccc1)NC(=O)N[C@@H](Cc1ccc(O)cc1)C(=O)O)C(=O)NC[C@H]1C[C@@H](O)[C@H](n2ccc(=O)[nH]c2=O)O1 [Compound 160] | 32 µg/mL (≈ 41.7 µM) | <1 µg/mL | 256 µg/mL (≈ 334 µM) | 512 µg/mL (≈ 668 µM) | >512 µg/mL | >512 µg/mL | 16 mg/L (≈ 20.9 µM) | 128 mg/L (≈ 167 µM) | 8 µg/mL (≈ 10.4 µM) | 16 µg/mL (≈ 20.9 µM) | 4 µg/mL (≈ 5.22 µM) | 512 µg/mL (≈ 668 µM)
CC(N)C(=O)N(C)C(C)C(NC(=O)C(CC1CCCCC1)NC(=O)NC(Cc1c[nH]c2ccccc12)C(=O)O)C(=O)NCC1CC(O)C(n2ccc(=O)[nH]c2=O)O1 [Compound 136, 1-[5-(2S 3S)-N^3-L-Alanyl-N^2-[N-[[(1S)-1-carboxy-2-indol-3-ylethyl]carbamoyl]-L-cyclohexylalanyl]-N^3-methyl-2,3-diaminobutyramido]-3′,5′-dideoxy-α-L-arabinofuranosyl]uracil] | >512 µg/mL | 4 µg/mL (≈ 5.03 µM) | >512 µg/mL | >512 µg/mL | >512 µg/mL | >512 µg/mL | 8 mg/L (≈ 10.1 µM) | 128 mg/L (≈ 161 µM) | 64 µg/mL (≈ 80.4 µM) | 128 µg/mL (≈ 161 µM) | 64 µg/mL (≈ 80.4 µM) | >512 µg/mL
CC(N)C(=O)N(C)C(C)C(NC(=O)C(Cc1csc2ccccc12)NC(=O)NC(Cc1ccc(O)cc1)C(=O)O)C(=O)NCC1CC(O)C(n2ccc(=O)[nH]c2=O)O1 [Compound 130, 1-[5′-[(2S,3S)-N^3-L-Alanyl-N^2-[N-[[(1S)-1-carboxy-4-hydroxyphenethyl]carbamoyl]-L-benzothienylalanyl]-N^3-methyl-2,3-diaminobutyramidol-3′,5′-dideoxy-α-L-arabinofuranosyl]uracil] | 64 µg/mL (≈ 77.8 µM) | 8 µg/mL (≈ 9.72 µM) | 512 µg/mL (≈ 622 µM) | 256 µg/mL (≈ 311 µM) | >512 µg/mL | >512 µg/mL | 8 mg/L (≈ 9.72 µM) | 32 mg/L (≈ 38.9 µM) | 16 µg/mL (≈ 19.4 µM) | 64 µg/mL (≈ 77.8 µM) | 16 µg/mL (≈ 19.4 µM) | 128 µg/mL (≈ 156 µM)
CC(C)CC(N)C(=O)N(C)C(C)C(NC(=O)C(Cc1ccc(F)cc1)NC(=O)NC(Cc1c[nH]c2ccccc12)C(=O)O)C(=O)NCC1CC(O)C(n2ccc(=O)[nH]c2=O)O1 [Compound 117, 1-[5′-[(2S,3S)-N^2-[N-[[(1S)-1-Carboxy-2-indol-3-ylethyl]carbamoyl]-L-4-fluorophenylalanyl]-N^3-L-leucyl-N^3-methyl-2,3-diaminobutyramido]-3′,5′-dideoxy-α-L-arabinofuranosyl]uracil] | >512 µg/mL | <1 µg/mL | 256 µg/mL (≈ 301 µM) | >512 µg/mL | >512 µg/mL | >512 µg/mL | 8 mg/L (≈ 9.41 µM) | 64 mg/L (≈ 75.3 µM) | 64 µg/mL (≈ 75.3 µM) | 64 µg/mL (≈ 75.3 µM) | 32 µg/mL (≈ 37.7 µM) | >512 µg/mL
CC(C(NC(=O)C(Cc1ccccc1)NC(=O)NC(Cc1c[nH]c2ccccc12)C(=O)O)C(=O)NCC1CC(O)C(n2ccc(=O)[nH]c2=O)O1)N(C)C(=O)C(N)Cc1ccccc1 [Compound 156, 1-[5′-[(2S,3S)-N^2-[N-[[(1S)-1-Carboxy-2-indol-3-ylethyl]carbamoyl]-L-phenylalanyl]-N^3-L-phenylalanyl-N^3-methyl-2,3-diaminobutyramido]-3′,5′-dideoxy-α-L-arabinofuranosyl]uracil] | 512 µg/mL (≈ 591 µM) | 4 µg/mL (≈ 4.62 µM) | 256 µg/mL (≈ 296 µM) | >512 µg/mL | 256 µg/mL (≈ 296 µM) | 256 µg/mL (≈ 296 µM) | 16 mg/L (≈ 18.5 µM) | 256 mg/L (≈ 296 µM) | 32 µg/mL (≈ 37 µM) | 32 µg/mL (≈ 37 µM) | 512 µg/mL (≈ 591 µM) | >512 µg/mL
CSCCC(NC(=O)NC(Cc1c[nH]c2ccccc12)C(=O)O)C(=O)NC(C(=O)NCC1CC(O)C(n2ccc(=O)[nH]c2=O)O1)C(C)N(C)C(=O)C(N)Cc1ccc(F)cc1 [Compound 110, 1-[5′-[(2S,3S)-N^2-[N-[[(1S)-1-Carboxy-2-indol-3-ylethyl]carbamoyl]-L-methionyl]-N^3-L-4-fluorophenylalanyl-N^3-methyl-2,3-diaminobutyramido]-3′,5′-dideoxy-α-L-arabinofuranosyl]uracil] | 512 µg/mL (≈ 590 µM) | 16 µg/mL (≈ 18.4 µM) | 512 µg/mL (≈ 590 µM) | >512 µg/mL | 256 µg/mL (≈ 295 µM) | 256 µg/mL (≈ 295 µM) | – | – | 32 µg/mL (≈ 36.9 µM) | 64 µg/mL (≈ 73.7 µM) | 512 µg/mL (≈ 590 µM) | >512 µg/mL
C[C@H](N)C(=O)N(C)[C@@H](C)[C@H](NC(=O)[C@H](Cc1ccccc1F)NC(=O)N[C@@H](Cc1ccc(O)cc1)C(=O)O)C(=O)NC[C@H]1C[C@@H](O)[C@H](n2ccc(=O)[nH]c2=O)O1 [Compound 140, 1-[5′-[(2S,3S)-N^3-L-Alanyl-N^2-[N-[[(1S)-1-carboxy-4-hydroxyphenethyl]carbamoyl]-L-2-fluorophenylalanyl]-N^3-methyl-2,3-diaminobutyramido]-3′,5′-dideoxy-α-L-arabinofuranosyl]uracil] | 64 µg/mL (≈ 81.5 µM) | <1 µg/mL | >512 µg/mL | 512 µg/mL (≈ 652 µM) | >512 µg/mL | 512 µg/mL (≈ 652 µM) | – | – | 4 µg/mL (≈ 5.1 µM) | 64 µg/mL (≈ 81.5 µM) | 8 µg/mL (≈ 10.2 µM) | 512 µg/mL (≈ 652 µM)
